Tested on: young and elderly healthy volunteers
Assay: Cognitive Event-Related Potentials (ERP) latency composite score, correlated with plasma drug concentrations
Assay type: in vivo, human
Conditions: plasma concentration at 1.5 h in subjects with best ERP latencies composite score (ERP at Day 10, 6 h post-dose)
Description: The study below was a double blind placebo control study performed in accordance with the European Medicines Agency ICH-E6 (R1) guideline recommendations and the French law n° 2004-806, Aug. 9, 2004 relative to public health law. The study was a preliminary study whose one of the objectives was to assess baclofen and acamprosate combinatorial treatment to improve cognition in young and elderly healthy volunteers. The study was conducted on a cohort of 24 human subjects.
Briefly, the duration of treatment was of 10 days.
Electrophysiological measurement of Cognitive Event-Related Potentials (ERPs) were recorded to assess the cognitive performances of the subjects. ERPs are the electrophysiological response to a stimulus and could serve as a surrogate biological marker of cognitive performances. Here, the cognitive task required paying attention and to count odd stimuli according to a specific protocol. Potential is recorded during the test. An ERP latency composite score is determined from the different derivations. […]
A correlation was searched between each of the different endpoints (i.e. the cognitive tests, or the ERP latency composite score) and drug concentrations determined at each sampling time.
Pearson's correlation coefficient was determined for each of the endpoints and different plasmatic concentrations measured as a function of time.

SMILES	Most efficient plasmatic concentration in trial
NCC(CC(=O)O)c1ccc(Cl)cc1 (centres unmarked) [baclofen]	≥500 ng/mL
CC(=O)NCCCS(=O)(=O)O [acamprosate]	>2.5 ng/mL
